ChEMBL document CHEMBL3792379, “Synthesis and biological evaluation of aryloxyacetamide derivatives as neuroprotective agents” (2016)
Active and inactive are the calls of the source. No cut-off for these calls is given here.

Assays:
[1] = (§1) Neuroprotective activity against glutamate-induced cell death in rat PC12 cells assessed as cell viability at 1 uM after 24 hrs by MTT assay; format: functional; conditions: PC-12, 24 h, read-out: Activity
[2] = (§2) Neuroprotective activity against glutamate-induced cell death in rat PC12 cells assessed as cell viability at 0.1 uM after 24 hrs by MTT assay; format: functional; conditions: PC-12, 24 h, read-out: Activity
[3] = (§3) Neuroprotective activity against glutamate-induced cell death in rat PC12 cells assessed as cell viability at 10 uM after 24 hrs by MTT assay; format: functional; conditions: PC-12, 24 h, read-out: Activity
PC-12 [4] = assay: as §1; format: functional
PC-12 [5] = assay: as §2; format: functional
PC-12 [6] = assay: as §3; format: functional
PC-12 [7] = assay: Neuroprotective activity against glutamate-induced apoptosis in rat PC12 cells after 24 hrs by hoechst 33342 and propidium iodide double staining based fluorescence analysis; format: functional, cell-based
PC-12 [8] = assay: Neuroprotective activity against glutamate-induced cell death in rat PC12 cells assessed as cell viability after 24 hrs by MTT assay; format: functional, cell-based
PC-12 [9] = assay: Neuroprotective activity against glutamate-induced apoptosis in rat PC12 cells at 0.1 uM after 24 hrs by hoechst 33342 and propidium iodide double staining based fluorescence analysis (reference value: 43.97 +/- 2.69%); format: functional
PC-12 [10] = assay: Neuroprotective activity against glutamate-induced apoptosis in rat PC12 cells at 10 uM after 24 hrs by hoechst 33342 and propidium iodide double staining based fluorescence analysis (reference value: 43.97 +/- 2.69%); format: functional
PC-12 [11] = assay: Neuroprotective activity against glutamate-induced apoptosis in rat PC12 cells assessed as decrease in procaspase-3 level after 24 hrs by western blot analysis; format: functional, cell-based
PC-12 [12] = assay: Neuroprotective activity against glutamate-induced apoptosis in rat PC12 cells assessed as decrease in caspase-3 level after 24 hrs by western blot analysis; format: functional, cell-based
PC-12 [13] = assay: Neuroprotective activity against glutamate-induced apoptosis in rat PC12 cells at 1 uM after 24 hrs by hoechst 33342 and propidium iodide double staining based fluorescence analysis (reference value: 43.97 +/- 2.69%); format: functional
[14] = Neuroprotective activity against glutamate-induced cell death in rat PC12 cells assessed as cell viability at 90 uM after 24 hrs by MTT assay; format: functional; conditions: PC-12, 24 h, read-out: Activity
PC-12 [15] = assay: Neuroprotective activity against glutamate-induced apoptosis in rat PC12 cells assessed as procaspase-3 level at 0.1 to 10 uM after 24 hrs by western blot analysis; format: functional, cell-based

| Structure (SMILES) | viability at 1 µM [1] | viability at 0.1 µM [2] | viability at 10 µM [3] | also measured |
| --- | --- | --- | --- | --- |
| COc1ccc(OCC(=O)N2CCN(C(c3ccc(F)cc3)c3ccc(F)cc3)CC2)cc1 | 5.26% | 3.1% | 80.5% | – |
| COC(=O)c1ccccc1CN1CCN(C(=O)COc2ccccc2C)CC1 | 9.55% | 6.39% | 25.1% | – |
| Cc1ccccc1OCC(=O)N1CCN(C(c2ccc(Br)cc2)c2ccc(Br)cc2)CC1 | – | – | – | Activity (PC-12 [4]): inactive; Activity (PC-12 [5]): inactive; Activity (PC-12 [6]): inactive |
| Cc1ccc(C(c2ccc(C)cc2)N2CCN(C(=O)COc3ccc4ccccc4c3)CC2)cc1 | 5.63% | 4.75% | 10.3% | – |
| COC(=O)c1ccccc1CN1CCN(C(=O)COc2ccc(Cl)cc2)CC1 | 5.15% | 39.9% | 6.36% | – |
| COc1ccc(/C=C/C(=O)N2CCN(C(c3ccc(F)cc3)c3ccc(F)cc3)CC2)cc1 | 49.7% | 71% | 77.8% | – |
| COc1ccccc1OCC(=O)N1CCN(C(c2ccc(F)cc2)c2ccc(F)cc2)CC1 | 45.9% | 32% | 79.7% | Activity (PC-12 [7]): Dose-dependent effect; Activity (PC-12 [8]): Dose-dependent effect; Activity (PC-12 [9]): 42.28%; Activity (PC-12 [10]): 19.18%; Activity (PC-12 [11]): Dose-dependent effect; Activity (PC-12 [12]): Dose-dependent effect; Activity (PC-12 [13]): 31.04% |
| O=C(COc1ccc2ccccc2c1)N1CCN(C(c2ccc(Br)cc2)c2ccc(Br)cc2)CC1 | 7.87% | 4.06% | 30.2% | – |
| Cc1ccccc1OCC(=O)N1CCN(C(c2ccc(F)cc2)c2ccc(F)cc2)CC1 | 8.7% | 7.92% | 57% | – |
| O=C(COc1ccc2ccccc2c1)N1CCN(C(c2ccc(F)cc2)c2ccc(F)cc2)CC1 | – | – | – | Activity (PC-12 [4]): inactive; Activity (PC-12 [5]): inactive; Activity (PC-12 [6]): inactive |
| COc1ccc(OCC(=O)N2CCN(C(c3ccc(C)cc3)c3ccc(C)cc3)CC2)cc1 | 42.3% | 21.7% | 47.5% | – |
| COc1ccc(C(c2ccc(OC)cc2)N2CCN(C(=O)COc3ccc4ccccc4c3)CC2)cc1 | 5.42% | 2.55% | 25.6% | – |
| O=C(COc1ccc(Br)cc1)N1CCN(Cc2ccc(Br)cc2)CC1 | – | – | – | Activity (PC-12 [4]): inactive; Activity (PC-12 [5]): inactive; Activity (PC-12 [6]): inactive |
| COc1ccccc1OCC(=O)N1CCN(Cc2ccc(Br)cc2)CC1 | 41% | 38% | 20.8% | – |
| COc1ccc(OCC(=O)N2CCN(C(c3ccc(Br)cc3)c3ccc(Br)cc3)CC2)cc1 | 7.06% | 3.52% | 50.3% | – |
| COC(=O)c1ccccc1CN1CCN(C(=O)COc2ccc(Br)cc2)CC1 | – | – | – | Activity (PC-12 [4]): inactive; Activity (PC-12 [5]): inactive; Activity (PC-12 [6]): inactive |
| COc1ccccc1OCC(=O)N1CCN(C(c2ccc(C)cc2)c2ccc(C)cc2)CC1 | – | – | – | Activity (PC-12 [4]): inactive; Activity (PC-12 [5]): inactive; Activity (PC-12 [6]): inactive |

| Structure (SMILES) | viability at 1 µM [1] | viability at 0.1 µM [2] | viability at 10 µM [3] | also measured |
| --- | --- | --- | --- | --- |
| COC(=O)c1ccccc1CN1CCN(C(=O)COc2ccc3ccccc3c2)CC1 | 37.4% | 25.6% | 49.5% | Activity (PC-12 [7]): Dose-dependent effect; Activity (PC-12 [8]): Dose-dependent effect; Activity (PC-12 [9]): 35.67%; Activity (PC-12 [10]): 21.81%; Activity (PC-12 [11]): Dose-dependent effect; Activity (PC-12 [12]): Dose-dependent effect; Activity (PC-12 [13]): 29.27% |
| COC(=O)c1ccccc1CN1CCN(C(=O)COc2ccc(OC)cc2)CC1 | – | – | – | Activity (PC-12 [4]): inactive; Activity (PC-12 [5]): inactive; Activity (PC-12 [6]): inactive |
| COc1ccc(OCC(=O)N2CCN(C(c3ccc(OC)cc3)c3ccc(OC)cc3)CC2)cc1 | 80.7% | 59.4% | 56.7% | – |
| COc1ccc(C(c2ccc(OC)cc2)N2CCN(C(=O)COc3ccccc3C)CC2)cc1 | 3.75% | 2.45% | 21.2% | – |
| CC1=NN(c2ccccc2)C(=O)C1 [EDARAVONE] | – | – | – | viability at 90 µM [14]: 33% |
| COC(=O)c1ccccc1CN1CCN(C(=O)COc2ccccc2OC)CC1 | 32.8% | 23.2% | 23.1% | – |
| Cc1ccc(C(c2ccc(C)cc2)N2CCN(C(=O)COc3ccc(Cl)cc3)CC2)cc1 | 9.14% | 5.81% | 9.2% | – |
| Cc1ccc(C(c2ccc(C)cc2)N2CCN(C(=O)COc3ccccc3C)CC2)cc1 | 4.24% | 3.24% | 11.3% | – |
| O=C(COc1ccc(Br)cc1)N1CCN(C(c2ccc(Br)cc2)c2ccc(Br)cc2)CC1 | – | – | – | Activity (PC-12 [4]): inactive; Activity (PC-12 [5]): inactive; Activity (PC-12 [6]): inactive |
| O=C(COc1ccc(Cl)cc1)N1CCN(C(c2ccc(Br)cc2)c2ccc(Br)cc2)CC1 | 8.01% | 4.22% | 16.7% | – |
| O=C(COc1ccc(Br)cc1)N1CCN(C(c2ccc(F)cc2)c2ccc(F)cc2)CC1 | 47.6% | 26.8% | 77.1% | Activity (PC-12 [7]): Dose-dependent effect; Activity (PC-12 [8]): Dose-dependent effect; Activity (PC-12 [9]): 41.83%; Activity (PC-12 [15]): inactive; Activity (PC-12 [10]): 24.65%; Activity (PC-12 [12]): Dose-dependent effect; Activity (PC-12 [13]): 32.18% |
| CCOc1ccc(CN2CCN(C(=O)COc3ccccc3C)CC2)cc1 | 30.6% | 35.3% | 28.9% | – |
| COC(=O)c1ccccc1CN1CCN(C(=O)COc2ccc(C)cc2)CC1 | – | – | – | Activity (PC-12 [4]): inactive; Activity (PC-12 [5]): inactive; Activity (PC-12 [6]): inactive |
| COc1ccccc1OCC(=O)N1CCN(C(c2ccc(Br)cc2)c2ccc(Br)cc2)CC1 | 12.8% | 45.5% | 6.67% | – |
| Cc1ccccc1OCC(=O)N1CCN(Cc2ccc(Br)cc2)CC1 | 22.1% | 10.2% | 20.8% | – |
| CCOc1ccccc1CN1CCN(C(=O)COc2ccc3ccccc3c2)CC1 | 45.7% | 29.8% | 59.6% | Activity (PC-12 [7]): Dose-dependent effect; Activity (PC-12 [8]): Dose-dependent effect; Activity (PC-12 [9]): 35.09%; Activity (PC-12 [15]): inactive; Activity (PC-12 [10]): 16.21%; Activity (PC-12 [12]): Dose-dependent effect; Activity (PC-12 [13]): 23.73% |
| CCOc1ccccc1CN1CCN(C(=O)COc2ccccc2C)CC1 | 11.9% | 53.3% | 8.52% | – |
